The test deals with T1, PAR-2 (Homo sapiens, UniProt P55085).
T1 construct: human embryonic kidney 293 cells (HEK293) endogenously expressing PAR-2; endogenous in cells; host or cells: HEK293
T1 sequence (P55085 26-397): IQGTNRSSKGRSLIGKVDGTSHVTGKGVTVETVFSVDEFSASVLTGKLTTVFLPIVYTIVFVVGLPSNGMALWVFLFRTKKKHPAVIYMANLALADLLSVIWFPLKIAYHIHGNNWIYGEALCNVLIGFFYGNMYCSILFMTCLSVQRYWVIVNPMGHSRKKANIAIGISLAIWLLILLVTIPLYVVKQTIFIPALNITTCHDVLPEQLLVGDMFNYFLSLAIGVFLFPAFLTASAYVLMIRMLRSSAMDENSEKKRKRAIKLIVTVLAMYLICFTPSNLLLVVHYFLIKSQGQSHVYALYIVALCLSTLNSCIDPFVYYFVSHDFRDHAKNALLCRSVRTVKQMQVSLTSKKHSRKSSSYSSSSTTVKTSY
The test can be described thus: In vitro PAR-2 assay (trypsin-evoked calcium signal, Fluo-4). Type of test: cell-based. The conditions noted are these: for IC50: HEK293 cells endogenously expressing PAR-2, in the presence of 4 nM trypsin, calcium imaging. On the procedure:
Assay Principle: A cellular in vitro assay was developed with human embryonic kidney 293 cells (HEK293) endogenously expressing PAR-2. The PAR-2 activating protease trypsin (EC50: ˜1 nM) was used as an agonistic stimulus with subsequent Fluo-4 dependent intracellular calcium detection (calcium imaging).
A cell-based calcium assay was applied for the identification of PAR-2 antagonistic effects of polyethylene glycol esters and polyethylene glycol ethers. Functional modulation of PAR-2 by the tested compounds was measured and quantified using the calcium sensitive fluorescent probe Fluo-4 AM on a fluorescence microplate reader. Activation of PAR-2 by an agonist (trypsin) led to an increase in the intracellular calcium concentration and thus an increase in fluorescence intensity.
Human embryonic kidney 293 cells (HEK293) endogenously expressing PAR-2 were cultured in DMEM (high glucose) supplemented with tetracycline-free FCS (10% v/v), L-glutamine (4 mM), blasticidin (15 μg/ml), zeocin (100 μg/ml) and puromycin (2 μg/ml) in a water-saturated atmosphere at 37° C. and 5% CO2.
Cells were seeded onto 96-well clear-bottom black-walled assay plates at a density of 45.000 cells per well in 100 μl of cell culture medium. Intracellular calcium increase in the living cells due to receptor activation was monitored 24 h later using the calcium sensitive fluorescent probe Fluo-4 AM on a fluorescence microplate reader (FlexStation® system, Molecular Devices). […]
Medium was replaced with 150 μl KH buffer supplemented with sulfinpyrazone (250 μM). Subsequently, 50 μl KH buffer supplemented with the screening compounds or control substances were added and the cells were incubated for 10 min. under assay conditions in the microplate reader. Changes in fluorescence were recorded at 37° C. after addition of 50 μl KH buffer supplemented with the PAR-2 agonist trypsin (final concentration of 4 nM under measurement conditions).
Calcium mobilization was quantified as the change of peak fluorescence (ΔF) over the baseline level (F). The data was analysed with the software of the microplate reader. […]

The text below walks through data of patent US20180185301A1, “PHARMACEUTICAL COMPOSITIONS COMPRISING POLYALKYLENE GLYCOL DERIVATIVES” (Symrise AG, priority 2015, published 2018).

For trypsin [reference compound], under “HEK293 cells, Fluo-4 calcium detection, read-out: EC50 of PAR-2 activating protease (agonistic stimulus)”, the EC50 – broadly, the concentration giving half of the maximal effect – was around 0.001 µM. On to PEG-5 Isononanoate, for which the IC50 (commonly the concentration that inhibits the measured activity by half) was 100 µM. Consider PEG-9 Tridecylether, for which the IC50 stood at 65 µM.
